# Measured values reported in paper PMC3335078, “Length and Amino Acid Sequence of Peptides Substituted for the 5-HT3A Receptor M3M4 Loop May Affect Channel Expression and Desensitization” (PLoS ONE, 2012).
# Test system: 5-HT3A-QDA receptor
# Experiment: Outside-out patch clamp of transfected HEK293 cells, effect of ondansetron on 5-HT activated channels
# Assay type: cell-based
# Details: 1 µM ondansetron with 5-HT, -60 mV, data not shown
# Method: HEK293 cells (CRL-1573, ATCC, Manassas, VA) seeded at low density on poly-lysine-coated, 12 mm, thin glass coverslips were transfected 24 h later using a modified calcium-phosphate precipitation technique with 500 ng DNA per well. After 12 h, cells were rinsed with fresh medium (DMEM supplemented with 10% FBS+100 Units ml^-1 penicillin+100 μg ml^-1 streptomycin+4 mM L-glutamine) and incubated at 28°C [34]. Recordings were performed 24-48 h later. For patch clamp experiments the coverslips were mounted on an inverted Zeiss IM microscope equipped with epifluorescent illumination. Cells expressing the GFP reporter were selected for patch clamp recording. Pipettes pulled from borosilicate glass capillaries ([…]-10, Harvard Apparatus Inc., Holliston, MA) with a tip resistance of 8-13 MΩ when filled with intracellular solution. The recordings were done using outside-out and cell-attached patch configurations. Data was acquired with an EPC9 amplifier using Pulse software, v8.65 (HEKA Instruments Inc., Bellmore, NY). Data were sampled at 20 kHz and filtered at 10 kHz. All point histograms and fits with a sum of two or three Gaussian functions were performed using the Levenberg-Marquardt algorithm implemented in Qub software. […] Effects of ondansetron were determined in the outside-out recording configuration at a holding potential of -60 mV.
smiles,measurement,value
"Cc1nccn1CC1CCc2c(c3ccccc3n2C)C1=O (stereo not shown) [ondansetron, Ondansetron]",Block of 5-HT activated single channels,no similar channels were observed
